Assay results from ChEMBL document CHEMBL4476880, “beta-arrestin effectors and compositions and methods of use thereof” (2013).
The source made the active and inactive calls. The calls are words filed in the database; no cut-off is given here.

Key:
[1] = test system: Canis familiaris; test: Effect on renal function parameters in paced dog model of acute heart failure assessed as maintenance of glomerular filtration rate at 0.01 to 100 ug/kg/min dosed as dose escalation regime with duration of 30 mins for each dose; type: functional, organism-based; settings: Canis lupus familiaris
[2] = test system: Canis familiaris; test: Preservation of cardiac output in paced dog model of acute heart failure at 0.01 to 100 ug/kg/min dosed as dose escalation regime with duration of 30 mins for each dose; type: functional, organism-based; settings: Canis lupus familiaris
[3] = test system: Rattus norvegicus; test: Effect on vascular and cardiac function in normal anesthetized rat assessed as preservation of pre-recruitable stroke work at 0.1 to 10 ug/kg/min, iv; type: functional, organism-based
[4] = test system: Rattus norvegicus; test: Effect on heart rate in normal anesthetized rat at 0.1 to 10 ug/kg/min, iv; type: ADME, organism-based; settings: in vivo
[5] = test system: Canis familiaris; test: Suppression of systemic vascular resistance in paced dog model of acute heart failure at 0.01 to 100 ug/kg/min dosed as dose escalation regime with duration of 30 mins for each dose; type: functional, organism-based; settings: Canis lupus familiaris
[6] = test system: Rattus norvegicus; test: Effect on vascular and cardiac function in normal anesthetized rat assessed as increase in slope of end systolic pressure volume relationship at 0.1 to 10 ug/kg/min, iv; type: functional, organism-based
[7] = test system: Canis familiaris; test: Suppression of pulmonary capillary wedge pressure in paced dog model of acute heart failure at 0.01 to 100 ug/kg/min dosed as dose escalation regime with duration of 30 mins for each dose; type: functional, organism-based; settings: Canis lupus familiaris
[8] = test system: Rattus norvegicus; test: Effect on vascular and cardiac function in normal anesthetized rat assessed as reduction in mean arterial pressure at 0.1 to 10 ug/kg/min, iv; type: functional, organism-based
[9] = test system: Rattus norvegicus; test: Effect on vascular and cardiac function in normal anesthetized rat assessed as reduction in vaso-constriction at 0.1 to 10 ug/kg/min, iv; type: functional, organism-based
[10] = test system: Canis familiaris; test: Effect on renal function parameters in paced dog model of acute heart failure assessed as maintenance of urine potassium at 0.01 to 100 ug/kg/min dosed as dose escalation regime with duration of 30 mins for each dose; type: functional, organism-based; settings: Canis lupus familiaris
[11] = test system: Canis familiaris; test: Increase in urine output in paced dog model of acute heart failure at 0.01 to 100 ug/kg/min dosed as dose escalation regime with duration of 30 mins for each dose; type: functional, organism-based; settings: Canis lupus familiaris
[12] = test system: Canis familiaris; test: Increase in urine sodium excretion in paced dog model of acute heart failure at 0.01 to 100 ug/kg/min dosed as dose escalation regime with duration of 30 mins for each dose; type: functional, organism-based; settings: Canis lupus familiaris
[13] = test system: Canis familiaris; test: Suppression of mean arterial pressure in paced dog model of acute heart failure at 0.01 to 100 ug/kg/min dosed as dose escalation regime with duration of 30 mins for each dose; type: functional, organism-based; settings: Canis lupus familiaris
[14] = test system: Rattus norvegicus; test: Effect on vascular and cardiac function in normal anesthetized rat assessed as preservation of stroke volume at 0.1 to 10 ug/kg/min, iv; type: functional, organism-based
[15] = test system: Canis familiaris; test: Suppression of right arterial pressure in paced dog model of acute heart failure at 0.01 to 100 ug/kg/min dosed as dose escalation regime with duration of 30 mins for each dose; type: functional, organism-based; settings: Canis lupus familiaris
[16] = test system: Canis familiaris; test: Suppression of renal vascular resistance in paced dog model of acute heart failure at 0.01 to 100 ug/kg/min dosed as dose escalation regime with duration of 30 mins for each dose; type: functional, organism-based; settings: Canis lupus familiaris
[17] = test system: Canis familiaris; test: Increase in renal blood flow in paced dog model of acute heart failure at 0.01 to 100 ug/kg/min dosed as dose escalation regime with duration of 30 mins for each dose; type: functional, organism-based; settings: Canis lupus familiaris

## CC[C@H](C)[C@H](NC(=O)[C@H](Cc1ccc(O)cc1)NC(=O)[C@@H](NC(=O)[C@H](CCCNC(=N)N)NC(=O)CNC)C(C)C)C(=O)N[C@@H](Cc1cnc[nH]1)C(=O)N1CCC[C@H]1C(=O)N[C@H](C)C(=O)O [TRV-120027]
[1]
  Activity: Dose-dependent effect
[2]
  Activity: Dose-dependent effect
[3]
  Activity: Active
[4]
  Activity: Non-Toxic
[5]
  Activity: Dose-dependent effect
[6]
  Activity: Active
[7]
  Activity: Dose-dependent effect
[8]
  Activity: Dose-dependent effect
[9]
  Activity: Active
[10]
  Activity: Dose-dependent effect
[11]
  Activity: Dose-dependent effect
[12]
  Activity: Dose-dependent effect
[13]
  Activity: Dose-dependent effect
[14]
  Activity: Active
[15]
  Activity: Dose-dependent effect
[16]
  Activity: Dose-dependent effect
[17]
  Activity: Dose-dependent effect
